Measurements from patent publication US20250032625A1, “HETEROBIFUNCTIONAL MOLECULES AS TEAD INHIBITORS” (Merck Patent GmbH, priority 2021, published 2025).
Read-outs that look alike come from different tables or passages of the source.

Key:
TEAD1 in SK-HEP1 cells = TEAD1 in SK-HEP1 cells (Homo sapiens (Human), UniProt P28347); assay: TEAD degradation in SK-HEP1 cell line (immunofluorescence); format: cell-based
Summary of the method: (§1)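 SK-HEP1 and NCI-H226 cells were treated in duplicate for 16 or 24 h at 37 °C with compound (10 points, 1:3, top 30 µM final). After fixation, TEAD1 was immunostained with anti-TEF1 and per-cell fluorescence quantified by high-content imaging. DC50 from curve fitting.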

TEAD1 in NCI-H226 cells = TEAD1 in NCI-H226 cells (Homo sapiens (Human), UniProt P28347); assay: TEAD degradation in NCI-H226 cell line (immunofluorescence); format: cell-based
Summary of the method: as §1

[1] = 24 hours, ranges, read-out: DC50 SK-HEP1
[2] = 24 hours, ranges, read-out: DC50 NCI-H226

TEAD1 in NCI-H226 cells, sequence (P28347 whole entry): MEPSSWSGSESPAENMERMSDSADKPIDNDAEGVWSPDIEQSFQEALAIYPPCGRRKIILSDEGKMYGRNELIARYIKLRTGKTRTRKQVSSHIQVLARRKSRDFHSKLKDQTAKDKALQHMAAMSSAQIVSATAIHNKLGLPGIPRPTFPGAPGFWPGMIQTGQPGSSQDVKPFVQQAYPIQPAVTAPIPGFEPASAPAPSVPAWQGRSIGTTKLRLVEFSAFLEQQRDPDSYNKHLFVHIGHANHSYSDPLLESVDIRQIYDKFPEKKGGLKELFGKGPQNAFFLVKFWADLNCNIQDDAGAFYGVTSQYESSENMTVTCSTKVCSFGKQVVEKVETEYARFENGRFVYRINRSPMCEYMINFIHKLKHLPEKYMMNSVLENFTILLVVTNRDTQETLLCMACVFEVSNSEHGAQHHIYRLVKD
TEAD1 in SK-HEP1 cells, sequence (P28347 whole entry): as above

| SMILES | DC50 (TEAD1 in SK-HEP1 cells; [1]) [nM] | DC50 (TEAD1 in NCI-H226 cells; [2]) [nM] | DC50 (TEAD1 in SK-HEP1 cells; 16 h incubation, read-out: DC50 SK-HEP1 16 h) [nM] | DC50 (TEAD1 in SK-HEP1 cells; 24 h incubation, read-out: DC50 SK-HEP1 24 h) [nM] | DC50 (TEAD1 in NCI-H226 cells; 16 h incubation, read-out: DC50 NCI-H226 16 h) [nM] | DC50 (TEAD1 in NCI-H226 cells; 24 h incubation, read-out: DC50 NCI-H226 24 h) [nM] |
| --- | --- | --- | --- | --- | --- | --- |
| Cc1ncsc1-c1ccc(CNC(=O)[C@@H]2C[C@@H](O)CN2C(=O)[C@@H](NC(=O)CCOCCC(=O)NCCOCCOCCNC(=O)c2ccc3c(c2)c2cn(C)nc2n3-c2ccc(C(F)(F)F)cc2)C(C)(C)C)cc1 [Compound 61, (2S,4R)-1-[(2S)-3,3-dimethyl-2-(3-{2-[(2-{2-[2-({2-methyl-8-[4-(trifluoro-methyl)phenyl]-2H,8H-pyrazolo[3,4-b]indol-5-yl}formamido)-ethoxy]ethoxy}ethyl)carbamoyl]ethoxy}propanamido)butanoyl]-4-hydroxy-N-{[4-(4-methyl-1,3-thiazol-5-yl)phenyl]methyl}pyrrolidine-2-carboxamide] | 3000 to 9000 | 3000 to 9000 |  |  |  |  |
| Cc1ncsc1-c1ccc([C@H](C)NC(=O)[C@@H]2C[C@@H](O)CN2C(=O)[C@@H](NC(=O)CCCCCc2cnnn2CCCCCCCNC(=O)c2ccc3c(c2)c2cn(C)nc2n3-c2ccc(C(F)(F)F)cc2)C(C)(C)C)cc1 [Compound 38, (2S,4R)-1-[(2S)-3,3-dimethyl-2-(6-{1-[7-({2-methyl-8-[4-(trifluoromethyl)-phenyl]-2H,8H-pyrazolo[3,4-b]indol-5-yl}formamido)heptyl]-1H-1,2,3-triazol-5-yl}hexanamido)butanoyl]-4-hydroxy-N-[(1S)-1-[4-(4-methyl-1,3-thiazol-5-yl)phenyl]ethyl]pyrrolidine-2-carboxamide] | 100 to 1000 | 100 to 1000 |  |  |  |  |
| Cc1ncsc1-c1ccc(CNC(=O)[C@@H]2C[C@@H](O)CN2C(=O)[C@@H](NC(=O)COCCOCCOCCNC(=O)c2ccc3c(c2)c2cn(C)nc2n3-c2ccc(C(F)(F)F)cc2)C(C)(C)C)cc1 [Compound 52] | 100 to 1000 | 100 to 1000 |  |  |  |  |
| Cc1ncsc1-c1ccc(CNC(=O)[C@@H]2C[C@@H](O)CN2C(=O)[C@@H](NC(=O)CCCCCC(=O)N(C)CCOCCOCCNC(=O)c2ccc3c(c2)c2cn(C)nc2n3-c2ccc(C(F)(F)F)cc2)C(C)(C)C)cc1 [Compound 53, N-[(2S)-1-[(2S,4R)-4-hydroxy-2-({[4-(4-methyl-1,3-thiazol-5-yl)phenyl]-methyl}carbamoyl)pyrrolidin-1-yl]-3,3-dimethyl-1-oxobutan-2-yl]-N′-methyl-N′-(2-{2-[2-({2-methyl-8-[4-(trifluoromethyl)phenyl]-2H,8H-pyrazolo[3,4-b]indol-5-yl}formamido)ethoxy]ethoxy}ethyl) heptanediamide] | 100 to 1000 | 100 to 1000 |  |  |  |  |
| Cc1ncsc1-c1ccc(CNC(=O)[C@@H]2C[C@@H](O)CN2C(=O)[C@@H](NC(=O)CCCCCc2cn(CCCCCCNC(=O)c3ccc4c(c3)c3cn(C)nc3n4-c3ccc(C(F)(F)F)cc3)nn2)C(C)(C)C)cc1 [Compound 35, (2S,4R)-1-[(2S)-3,3-dimethyl-2-(6-{1-[6-({2-methyl-8-[4-(trifluoromethyl)phenyl]-2H,8H-pyrazolo[3,4-b]indol-5-yl}formamido)hexyl]-1H-1,2,3-triazol-4-yl}hexanamido)butanoyl]-4-hydroxy-N-{[4-(4-methyl-1,3-thiazol-5-yl)phenyl]methyl}pyrrolidine-2-carboxamide] | < 100 | < 100 |  |  |  |  |
| Cc1ncsc1-c1ccc(CNC(=O)[C@@H]2C[C@@H](O)CN2C(=O)[C@@H](NC(=O)CCCCCc2cnnn2CCCCCCCNC(=O)c2ccc3c(c2)c2cn(C)nc2n3-c2ccc(C(F)(F)F)cc2)C(C)(C)C)cc1 [Compound 37, (2S,4R)-1-[(2S)-3,3-dimethyl-2-(6-{1-[7-({2-methyl-8-[4-(trifluoromethyl)-phenyl]-2H,8H-pyrazolo[3,4-b]indol-5-yl}formamido)heptyl]-1H-1,2,3-triazol-5-yl}hexanamido)butanoyl]-4-hydroxy-N-{[4-(4-methyl-1,3-thiazol-5-yl)phenyl]methyl}pyrrolidine-2-carboxamide] | 100 to 1000 | 100 to 1000 |  |  |  |  |
| Cn1cc2c3cc(C(=O)NCCOCCOCCOCCOCCNc4cccc5c4CN(C4CCC(=O)NC4=O)C5=O)ccc3n(-c3ccc(C(F)(F)F)cc3)c2n1 (stereo not drawn) [Compound 43, N-(14-{[2-(2,6-dioxopiperidin-3-yl)-1-oxo-2,3-dihydro-1H-isoindol-4-yl]amino}-3,6,9,12-tetraoxatetradecan-1-yl)-2-methyl-8-[4-(trifluoromethyl)phenyl]-2H,8H-pyrazolo[3,4-b]indole-5-carboxamide] | 9000 to 30000 | 100 to 1000 |  |  |  |  |
| Cc1ncsc1-c1ccc(CNC(=O)[C@@H]2C[C@@H](O)CN2C(=O)[C@@H](NC(=O)CCCCCCCCCOCCOCCNC(=O)c2ccc3c(c2)c2cn(C)nc2n3-c2ccc(C(F)(F)F)cc2)C(C)(C)C)cc1 [Compound 56] | 100 to 1000 | 100 to 1000 |  |  |  |  |
| Cc1ccc2c(c1)c1cc(C(=O)NCCOCCOCCOCCOCCNc3cccc4c3C(=O)N(C3CCC(=O)NC3=O)C4=O)ccc1n2-c1ccc(C(F)(F)F)cc1 (stereo not drawn) [Compound 46, N-(14-{[2-(2,6-dioxopiperidin-3-yl)-1,3-dioxo-2,3-dihydro-1H-isoindol-4-yl]amino}-3,6,9,12-tetraoxatetradecan-1-yl)-6-methyl-9-[4-(trifluoro-methyl)phenyl]-9H-carbazole-3-carboxamide] | 100 to 1000 | 100 to 1000 |  |  |  |  |
| Cc1ncsc1-c1ccc([C@H](C)NC(=O)[C@@H]2C[C@@H](O)CN2C(=O)[C@@H](NC(=O)CCCCCC(=O)NCCOCCOCCNC(=O)c2ccc3c(c2)c2cn(C)nc2n3-c2ccc(C(F)(F)F)cc2)C(C)(C)C)cc1 [Compound 24, N′-[(2S)-1-[(2S,4R)-4-hydroxy-2-{[(1S)-1-[4-(4-methyl-1,3-thiazol-5-yl)phenyl]ethyl]carbamoyl}pyrrolidin-1-yl]-3,3-dimethyl-1-oxobutan-2-yl]-N-(2-{2-[2-({2-methyl-8-[4-(trifluoromethyl)phenyl]-2H,8H-pyrazolo[3,4-b]indol-5-yl}formamido)ethoxy]ethoxy}ethyl) heptanediamide] | 100 to 1000 | 100 to 1000 | 700 | 700 | 1000 | 1000 |
| Cn1nc2c3cc(C(=O)NCCOCCOCCOCCOCCNc4cccc5c4C(=O)N(C4CCC(=O)NC4=O)C5=O)ccc3n(-c3ccc(C(F)(F)F)cc3)c2n1 (stereo not drawn) [Compound 45, N-(14-{[2-(2,6-dioxopiperidin-3-yl)-1,3-dioxo-2,3-dihydro-1H-isoindol-4-yl]amino}-3,6,9,12-tetraoxatetradecan-1-yl)-2-methyl-4-[4-(trifluoromethyl)phenyl]-2H,4H-[1,2,3]triazolo[4,5-b]indole-7-carboxamide] | 100 to 1000 | < 100 |  |  |  |  |
| Cc1ncsc1-c1ccc(CNC(=O)[C@@H]2C[C@@H](O)CN2C(=O)[C@@H](NC(=O)COCCCOCCOCCNC(=O)c2ccc3c(c2)c2cn(C)nc2n3-c2ccc(C(F)(F)F)cc2)C(C)(C)C)cc1 [Compound 74, (2S,4R)-1-[(2S)-3,3-dimethyl-2-[2-(3-{2-[2-({2-methyl-8-[4-(trifluoro-methyl)phenyl]-2H,8H-pyrazolo[3,4-b]indol-5-yl}formamido)ethoxy]-ethoxy}propoxy)acetamido]butanoyl]-4-hydroxy-N-{[4-(4-methyl-1,3-thiazol-5-yl)phenyl]methyl}pyrrolidine-2-carboxamide] | 100 to 1000 | 1000 to 3000 |  |  |  |  |
| CCNC(=O)[C@H](Cc1ccc(F)cc1)NC(=O)[C@@H]1CCCN1C(=O)[C@@H](NC(=O)[C@H](C)NCCOCCOCCOCCNC(=O)c1ccc2c(c1)c1cn(C)nc1n2-c1ccc(C(F)(F)F)cc1)C1CCCCC1 (stereo in doubt) [Compound 69, (13S)—N-[(1S)-1-cyclohexyl-2-[(2S)-2-{[(1S)-1-(ethylcarbamoyl)-2-(4-fluorophenyl)ethyl]carbamoyl}pyrrolidin-1-yl]-2-oxoethyl]-13-methyl-1-({2-methyl-8-[4-(trifluoromethyl)phenyl]-2H,8H-pyrazolo[3,4-b]indol-5-yl}form-amido)-3,6,9-trioxa-12-azatetradecan-14-amide] | 3000 to 9000 | 9000 to 30000 |  |  |  |  |
| Cn1cc2c3cc(C(=O)NCCOCCOCCOCCOCCNc4cccc5c4C(=O)N(C4CCC(=O)NC4=O)C5=O)ccc3n(CC3CCC(C(F)(F)F)CC3)c2n1 (stereo not drawn) [Compound 99, N-(14-{[2-(2,6-dioxopiperidin-3-yl)-1,3-dioxo-2,3-dihydro-1H-isoindol-4-yl]amino}-3,6,9,12-tetraoxatetradecan-1-yl)-2-methyl-8-{[4-(trifluoromethyl)cyclohexyl]methyl}-2H,8H-pyrazolo[3,4-b]indole-5-carboxamide] | < 100 | 100 to 1000 |  |  |  |  |
| Cn1cc2c3cc(C(=O)NCCOCCOCCOCCOCCOCCOCCNc4cccc5c4C(=O)N(C4CCC(=O)NC4=O)C5=O)ccc3n(-c3ccc(C(F)(F)F)cc3)c2n1 (stereo not drawn) [Compound 87, N-(20-{[2-(2,6-dioxopiperidin-3-yl)-1,3-dioxo-2,3-dihydro-1H-isoindol-4-yl]amino}-3,6,9,12,15,18-hexaoxaicosan-1-yl)-2-methyl-8-[4-(trifluoromethyl)phenyl]-2H,8H-pyrazolo[3,4-b]indole-5-carboxamide] | < 100 | < 100 |  |  |  |  |
| Cc1ncsc1-c1ccc(CNC(=O)[C@@H]2C[C@@H](O)CN2C(=O)[C@@H](NC(=O)CCCCCC(=O)NCCOCCOCCNC(=O)c2ccc3c(c2)c2nn(C)nc2n3-c2ccc(C(F)(F)F)cn2)C(C)(C)C)cc1 [Compound 55, N-[(2S)-1-[(2S,4R)-4-hydroxy-2-({[4-(4-methyl-1,3-thiazol-5-yl)phenyl]methyl}carbamoyl)pyrrolidin-1-yl]-3,3-dimethyl-1-oxobutan-2-yl]-N′-(2-{2-[2-({2-methyl-4-[5-(trifluoromethyl)pyridin-2-yl]-2H,4H-[1,2,3]triazolo[4,5-b]indol-7-yl}formamido)ethoxy]ethoxy}ethyl)-heptanediamide] | 100 to 1000 | 100 to 1000 |  |  |  |  |
